Test: xn = mol fraction of the nth substance listed

CC[n+]1ccn(C)c1.O=S(=O)([O-])O + Cc1ncc(C[n+]2csc(CCO)c2C)c(N)n1.Cl.[Cl-] + O
viscosity [mPa·s], 100 kPa
Conditions	293.15 K	298.15 K	303.15 K	308.15 K	313.15 K	318.15 K
x2 = 0, x1 = 0.0009002	1.05	0.94	0.84	0.76	0.69	0.65
x2 = 0, x1 = 0.001799	1.07	0.95	0.85	0.77	0.7	0.64
x2 = 0, x1 = 0.002696	1.08	0.96	0.86	0.78	0.71	0.64
x2 = 0.0002717, x1 = 0.0008999	1.06	0.95	0.85	0.77	0.7	0.66
x2 = 0.0002739, x1 = 0.001798	1.08	0.96	0.86	0.78	0.71	0.65
x2 = 0.0002783, x1 = 0.002695	1.09	0.97	0.87	0.79	0.72	0.65
x2 = 0.0005451, x1 = 0.0008997	1.07	0.96	0.85	0.78	0.71	0.67
x2 = 0.0005496, x1 = 0.001798	1.09	0.97	0.87	0.79	0.72	0.66
x2 = 0.0005575, x1 = 0.002694	1.1	0.98	0.88	0.8	0.73	0.66
x2 = 0.0008249, x1 = 0.001797	1.1	0.98	0.88	0.8	0.73	0.67
x2 = 0.0008327, x1 = 0.002693	1.11	0.99	0.89	0.81	0.73	0.67
x2 = 0.0008356, x1 = 0.0008994	1.08	0.97	0.86	0.79	0.72	0.68
x2 = 0.00109, x1 = 0.0008992	1.09	0.98	0.87	0.8	0.73	0.68
x2 = 0.001102, x1 = 0.001797	1.11	0.98	0.89	0.81	0.74	0.68
x2 = 0.001112, x1 = 0.002693	1.12	1	0.9	0.81	0.74	0.68
x2 = 0.001362, x1 = 0.000899	1.1	0.99	0.88	0.8	0.74	0.69
x2 = 0.001376, x1 = 0.001796	1.11	0.99	0.9	0.82	0.75	0.69
x2 = 0.001389, x1 = 0.002692	1.13	1.01	0.91	0.82	0.75	0.69
x2 = 0.001634, x1 = 0.0008987	1.1	1	0.89	0.81	0.75	0.7
x2 = 0.001651, x1 = 0.001796	1.12	1	0.91	0.83	0.76	0.7
x2 = 0.001665, x1 = 0.002691	1.14	1.02	0.92	0.83	0.76	0.7
x2 = 0.001907, x1 = 0.0008985	1.11	1.01	0.9	0.82	0.76	0.71
x2 = 0.001926, x1 = 0.001795	1.13	1.01	0.92	0.84	0.77	0.71
x2 = 0.001943, x1 = 0.00269	1.15	1.03	0.93	0.84	0.77	0.71

CCCC[n+]1ccn(C)c1.F[P-](F)(F)(F)(F)F + ClC(Cl)Cl
298.15 K, 101 kPa
Conditions	electrical conductivity [S/m]	viscosity [mPa·s]
x2 = 0	0.157	260
x2 = 0.0857	0.199	200
x2 = 0.1741	0.253	144
x2 = 0.2614	0.319	103
x2 = 0.3625	0.411	68.4
x2 = 0.4608	0.519	43
x2 = 0.5633	0.644	25
x2 = 0.6683	0.726	13.1
x2 = 0.7326	0.729	10

CCCC[n+]1ccn(C)c1.O=S(=O)([N-]S(=O)(=O)C(F)(F)F)C(F)(F)F + ClCCl
Conditions	viscosity [mPa·s]
298 K, 101 kPa, x2 = 0	50.4

CC#N + Cn1cc[n+](CCCN)c1.F[B-](F)(F)F
101 kPa, x2 = 0
Conditions	viscosity [mPa·s]
288.15 K	0.439
293.15 K	0.403
298.15 K	0.371
303.15 K	0.345
308.15 K	0.322
313.15 K	0.3
318.15 K	0.282
323.15 K	0.265

CCCC[n+]1ccn(C)c1.O=S(=O)([N-]S(=O)(=O)C(F)(F)F)C(F)(F)F + N
Conditions	viscosity [mPa·s]
313.2 K, 101 kPa, x1 = 1	27.3

CCCC[n+]1ccn(C)c1.F[P-](F)(F)(F)(F)F + NCCO
101 kPa
Conditions	electrical conductivity [S/m]	viscosity [mPa·s]
288.15 K, x2 = 0.8022	0.1847	45
288.15 K, x2 = 0.9028	0.1368	36
293.15 K, x2 = 0.3052	0.222	103
293.15 K, x2 = 0.387	0.236	–
293.15 K, x2 = 0.5871	0.268	–
293.15 K, x2 = 0.9592	0.1028	–
298.15 K, x2 = 0	0.1851	182
298.15 K, x2 = 0.2113	0.256	92
298.15 K, x2 = 0.3052	0.292	76
298.15 K, x2 = 0.5352	0.337	–
298.15 K, x2 = 0.8022	0.313	26
303.15 K, x2 = 0.6984	0.434	26
308.15 K, x2 = 0.387	0.506	–
308.15 K, x2 = 0.4282	0.511	35
308.15 K, x2 = 0.4761	0.541	–
313.15 K, x2 = 0.3052	0.602	35
313.15 K, x2 = 0.4761	0.669	–
313.15 K, x2 = 0.5352	0.679	–
313.15 K, x2 = 0.9592	0.25	–
318.15 K, x2 = 0.3052	0.733	28
318.15 K, x2 = 0.4282	0.773	22.1
318.15 K, x2 = 0.4918	0.796	19.5
323.15 K, x2 = 0	0.504	48
323.15 K, x2 = 0.3052	0.875	23.1
323.15 K, x2 = 0.4761	0.967	–
323.15 K, x2 = 0.5352	0.977	–

CCCC[n+]1ccn(C)c1.O=S(=O)([N-]S(=O)(=O)C(F)(F)F)C(F)(F)F + Nc1ccccc1
100 kPa, x2 = 0
Conditions	viscosity [mPa·s]
288.15 K	78.4
293.15 K	61.5
298.15 K	49.1
303.15 K	39.9
308.15 K	33.2
313.15 K	27.7
318.15 K	23.5
323.15 K	20.13
328.15 K	17.39
333.15 K	15.2

CCCC[n+]1ccn(C)c1.F[P-](F)(F)(F)(F)F + O
Conditions	electrical conductivity [S/m]	viscosity [mPa·s]
293.15 K, 100 kPa, x1 = 0.0001838	–	1.011
293.15 K, 100 kPa, x1 = 0.0005385	–	1.025
293.15 K, 100 kPa, x1 = 0.0008966	–	1.038
293.15 K, 100 kPa, x1 = 0.001262	–	1.041
298.15 K, 100 kPa, x1 = 0.0001838	–	0.905
298.15 K, 100 kPa, x1 = 0.0005385	–	0.916
298.15 K, 100 kPa, x1 = 0.0008966	–	0.922
298.15 K, 100 kPa, x1 = 0.001262	–	0.932
298.15 K, 101 kPa, x1 = 0.00129	–	0.929
298.15 K, 101 kPa, x2 = 0	0.157	260
298.15 K, 101 kPa, x2 = 0.0518	0.197	200
298.15 K, 101 kPa, x2 = 0.0985	0.235	154
298.15 K, 101 kPa, x2 = 0.1409	0.281	127
298.15 K, 101 kPa, x2 = 0.1794	0.334	109
298.15 K, 101 kPa, x2 = 0.2146	0.383	92
303.15 K, 100 kPa, x1 = 0.0001838	–	0.821
303.15 K, 100 kPa, x1 = 0.0005385	–	0.826
303.15 K, 100 kPa, x1 = 0.001262	–	0.843
308.15 K, 100 kPa, x1 = 0.0001838	–	0.742
308.15 K, 100 kPa, x1 = 0.0005385	–	0.744
308.15 K, 100 kPa, x1 = 0.0008966	–	0.75
308.15 K, 100 kPa, x1 = 0.001262	–	0.761
313.15 K, 100 kPa, x1 = 0.0001838	–	0.661
313.15 K, 100 kPa, x1 = 0.0005385	–	0.674
313.15 K, 100 kPa, x1 = 0.0008966	–	0.677
313.15 K, 100 kPa, x1 = 0.001262	–	0.683

101 kPa, frequency 6e-05 MHz
Conditions	electrical conductivity [S/m]
293.2 K, x2 = 0.1	0.199
298.2 K, x2 = 0.05	0.231
298.2 K, x2 = 0.15	0.361
308.2 K, x2 = 0.1	0.401
308.2 K, x2 = 0.2	0.546
313.2 K, x2 = 0.15	0.561
318.2 K, x2 = 0.05	0.491
318.2 K, x2 = 0.2	0.775
323.2 K, x2 = 0.1	0.678
333.2 K, x2 = 0.2	1.06
343.2 K, x2 = 0.15	1.06
353.2 K, x2 = 0.15	1.405
353.2 K, x2 = 0.2	1.621

COCCCn1cc[n+](C)c1.O=S(=O)([N-]S(=O)(=O)C(F)(F)F)C(F)(F)F + O
Conditions	viscosity [mPa·s]
283 K, 101 kPa, x1 = 0.8316	82.6

Cn1cc[nH+]c1.[Cl-] + O
viscosity [mPa·s], 100 kPa
Conditions	x1 = 9.081e-05	x1 = 0.000182	x1 = 0.0003637	x1 = 0.0005491	x1 = 0.0007277	x1 = 0.0008883	x1 = 0.001091	x1 = 0.001364	x1 = 0.00178
278.15 K	1.521	1.523	1.525	1.528	1.53	1.532	1.535	1.539	1.543
283.15 K	1.308	1.309	1.311	1.313	1.314	1.316	1.319	1.32	1.323
288.15 K	1.139	1.141	1.142	1.144	1.145	1.146	1.149	1.151	1.153
293.15 K	1.003	1.004	1.005	1.007	1.009	1.01	1.013	1.014	1.018
298.15 K	0.89	0.891	0.892	0.894	0.896	0.897	0.899	0.901	0.904
303.15 K	0.798	0.799	0.8	0.801	0.803	0.804	0.805	0.806	0.808
308.15 K	0.719	0.72	0.721	0.722	0.723	0.724	0.725	0.727	0.728
313.15 K	0.652	0.653	0.654	0.655	0.656	0.657	0.658	0.659	0.662

— the CheMixHub ionic liquid set
